Assay results from ChEMBL document CHEMBL1201862, “PubChem BioAssay data set” (2004).
Activity calls are given as the source filed them.

Tests used:
Beta-galactosidase = Beta-galactosidase (Escherichia coli, UniProt Q8VNN2); test: Dose response counterscreen for EBI2 assay utilizing the enzyme, b-galactosidase.; assay type: functional
cells [1] = assay type: functional, cell-based
cells [2] = assay type: functional, cell-based; remark: listed apart in the source
[3] = target: T1, Rac GTPase-activating protein 1 (Homo sapiens, UniProt Q9H0H5); test: blockers of MgcRacGAP-driven Rac1 GTP hydrolysis – biochemical, ADP Hunter fluorescence, primary and confirmatory, confirmation (AID 624330); assay type: functional
T1 sequence (Q9H0H5 whole entry): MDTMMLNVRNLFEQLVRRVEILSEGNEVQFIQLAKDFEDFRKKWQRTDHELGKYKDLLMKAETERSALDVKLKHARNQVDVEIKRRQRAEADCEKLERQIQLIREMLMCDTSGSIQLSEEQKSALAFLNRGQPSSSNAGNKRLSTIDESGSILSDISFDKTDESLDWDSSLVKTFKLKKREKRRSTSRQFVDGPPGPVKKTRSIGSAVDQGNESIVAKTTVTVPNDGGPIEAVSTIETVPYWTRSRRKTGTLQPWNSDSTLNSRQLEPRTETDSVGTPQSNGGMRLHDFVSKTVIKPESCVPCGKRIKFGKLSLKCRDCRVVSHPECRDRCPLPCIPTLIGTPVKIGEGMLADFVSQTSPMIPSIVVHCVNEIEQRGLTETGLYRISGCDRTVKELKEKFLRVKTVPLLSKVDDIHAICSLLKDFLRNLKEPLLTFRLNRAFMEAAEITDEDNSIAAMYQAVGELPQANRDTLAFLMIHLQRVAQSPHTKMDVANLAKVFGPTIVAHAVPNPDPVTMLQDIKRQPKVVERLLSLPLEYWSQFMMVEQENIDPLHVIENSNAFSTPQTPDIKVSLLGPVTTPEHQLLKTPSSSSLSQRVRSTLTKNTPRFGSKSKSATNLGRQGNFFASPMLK

[4] = viability loss in HeLa cells – cytotoxicity control for MgcRacGAP inhibitor project, dose response (AID 624300); assay type: functional
[5] = target: T2, Heat shock factor protein 1 (Mus musculus, UniProt P38532); test: decrease of HSF1-responsive luciferase luminescence – cell-based, NIH3T3, dose retest, confirmation (AID 2382); assay type: functional;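 further: NIH3T3 fibroblasts with HSF1-driven luciferase reporter stressed by proteasome inhibitor MG132; luminescence from HSF1-driven luciferase expression after 8 hours of MG132 stress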
T2 sequence (P38532 whole entry): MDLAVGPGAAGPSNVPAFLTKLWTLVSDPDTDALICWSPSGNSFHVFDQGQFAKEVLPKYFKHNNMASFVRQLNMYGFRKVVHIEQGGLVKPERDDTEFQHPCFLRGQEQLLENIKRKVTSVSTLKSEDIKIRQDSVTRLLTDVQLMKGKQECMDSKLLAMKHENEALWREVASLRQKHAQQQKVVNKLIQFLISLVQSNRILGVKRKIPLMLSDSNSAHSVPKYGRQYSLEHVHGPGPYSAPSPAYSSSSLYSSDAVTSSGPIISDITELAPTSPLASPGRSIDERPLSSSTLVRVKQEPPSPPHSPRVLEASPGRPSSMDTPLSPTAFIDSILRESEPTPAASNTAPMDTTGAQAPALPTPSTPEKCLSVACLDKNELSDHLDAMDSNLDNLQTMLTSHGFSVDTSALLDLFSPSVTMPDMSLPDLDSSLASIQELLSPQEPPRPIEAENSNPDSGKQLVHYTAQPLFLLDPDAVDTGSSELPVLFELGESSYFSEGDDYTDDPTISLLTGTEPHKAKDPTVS

Vero = test: viability loss in Vero cells – cell-based, plate reader, cherry-pick samples, cytotoxicity control, dose response (AID 687020); assay type: functional; details: Chlorocebus sabaeus
[6] = target: T3, Small ubiquitin-related modifier 1 (Homo sapiens, UniProt P63165); test: SUMO1 protein-protein binding blockers, potency – biochemical, FRET, dose response (AID 624383); assay type: functional; details: read-out: IC50_Mean
[7] = target: Tyrosyl-DNA phosphodiesterase 2 (Homo sapiens, UniProt O95551); test: potency against TDP2 phosphodiesterase activity – biochemical, epi absorbance, IC50, dose response (AID 743297)
[8] = target: T3, Small ubiquitin-related modifier 1; test: SUMO1 protein interaction blockers, potency – biochemical, fluorescence polarization, uHTS hits, dose response (AID 624382); assay type: functional; details: read-out: IC50_Mean
[9] = general mammalian cell viability loss – inhibitor set, cherry-pick, set 2, cytotoxicity control for miR-122 modulator project, dose response (AID 720697); assay type: functional, cell-based
[10] = activation of miR-122 Renilla sensor silencing – cell-based, Huh7 psiCHECK-miR122, Renilla luciferase, cherry-picked, dose response (AID 651956); assay type: functional;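 further: huh7 hepatoma cells stably carrying a psiCHECK-2 miR-122 sensor plasmid; renilla luciferase signal reporting endogenous miR-122 activity after 48 h compound exposure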
Paired box protein Pax-8 = Paired box protein Pax-8 (Homo sapiens, UniProt Q06710); test: PAX8 transcriptional activity inhibition in RMG-I – RMG-I cells, luciferase, cherry-pick, dose response (AID 687027); assay type: functional, cell-based;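 further: luciferase reporter driven by Pax8 target thyroperoxidase promoter measured by SteadyGlo luminescence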
[11] = general cell-killing toxicity readout – plate reader, dry powder samples, cytotoxicity control for PAX8 inhibitor project, dose response (AID 743021); assay type: functional, cell-based
[12] = cytotoxicity in MITF-independent A375 cells – cell-based, CellTiter-Glo luminescence, dry powder, set 4, counter-screen for MITF inhibitor project, dose response (AID 624364); assay type: functional; details: A-375;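 further: A375 melanoma cells are MITF independent so this is a counter screen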
[13] = viability loss in MITF-independent A375 cells – cell-based, CellTiter-Glo luminescence, dry powder, set 2, counter-screen for MITF inhibitor project, dose response (AID 624489); assay type: functional; details: A-375;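 further: actives are compounds lowering A375 viability meaning general cytotoxicity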
[14] = target: T4, Mannose-6-phosphate isomerase (Homo sapiens, UniProt P34949); test: MPI inhibition at elevated mannose 6-phosphate – biochemical, fluorescence intensity, high mannose 6-phosphate, primary screen (AID 1220)
T4 sequence (P34949 whole entry): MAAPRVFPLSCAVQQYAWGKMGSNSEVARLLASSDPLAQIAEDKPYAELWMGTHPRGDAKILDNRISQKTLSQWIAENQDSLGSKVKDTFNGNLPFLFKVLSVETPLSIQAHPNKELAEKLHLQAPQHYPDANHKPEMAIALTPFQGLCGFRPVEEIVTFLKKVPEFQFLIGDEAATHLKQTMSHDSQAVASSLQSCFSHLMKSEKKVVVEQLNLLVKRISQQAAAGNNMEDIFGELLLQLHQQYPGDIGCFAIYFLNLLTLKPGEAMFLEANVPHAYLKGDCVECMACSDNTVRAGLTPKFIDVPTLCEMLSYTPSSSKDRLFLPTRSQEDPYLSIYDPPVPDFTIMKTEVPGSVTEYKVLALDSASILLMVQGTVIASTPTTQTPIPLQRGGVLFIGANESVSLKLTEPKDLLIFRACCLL

Large T antigen = Large T antigen (Simian virus 40, UniProt P03070); assay type: functional, Betapolyomavirus macacae;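 further: Confirmatory-stage PubChem screen for compounds that inhibit SV40 T antigen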
[15] = target: T5, Histone-lysine N-methyltransferase NSD2 (Homo sapiens, UniProt O96028); assay type: biochemical
T5 sequence (O96028 whole entry): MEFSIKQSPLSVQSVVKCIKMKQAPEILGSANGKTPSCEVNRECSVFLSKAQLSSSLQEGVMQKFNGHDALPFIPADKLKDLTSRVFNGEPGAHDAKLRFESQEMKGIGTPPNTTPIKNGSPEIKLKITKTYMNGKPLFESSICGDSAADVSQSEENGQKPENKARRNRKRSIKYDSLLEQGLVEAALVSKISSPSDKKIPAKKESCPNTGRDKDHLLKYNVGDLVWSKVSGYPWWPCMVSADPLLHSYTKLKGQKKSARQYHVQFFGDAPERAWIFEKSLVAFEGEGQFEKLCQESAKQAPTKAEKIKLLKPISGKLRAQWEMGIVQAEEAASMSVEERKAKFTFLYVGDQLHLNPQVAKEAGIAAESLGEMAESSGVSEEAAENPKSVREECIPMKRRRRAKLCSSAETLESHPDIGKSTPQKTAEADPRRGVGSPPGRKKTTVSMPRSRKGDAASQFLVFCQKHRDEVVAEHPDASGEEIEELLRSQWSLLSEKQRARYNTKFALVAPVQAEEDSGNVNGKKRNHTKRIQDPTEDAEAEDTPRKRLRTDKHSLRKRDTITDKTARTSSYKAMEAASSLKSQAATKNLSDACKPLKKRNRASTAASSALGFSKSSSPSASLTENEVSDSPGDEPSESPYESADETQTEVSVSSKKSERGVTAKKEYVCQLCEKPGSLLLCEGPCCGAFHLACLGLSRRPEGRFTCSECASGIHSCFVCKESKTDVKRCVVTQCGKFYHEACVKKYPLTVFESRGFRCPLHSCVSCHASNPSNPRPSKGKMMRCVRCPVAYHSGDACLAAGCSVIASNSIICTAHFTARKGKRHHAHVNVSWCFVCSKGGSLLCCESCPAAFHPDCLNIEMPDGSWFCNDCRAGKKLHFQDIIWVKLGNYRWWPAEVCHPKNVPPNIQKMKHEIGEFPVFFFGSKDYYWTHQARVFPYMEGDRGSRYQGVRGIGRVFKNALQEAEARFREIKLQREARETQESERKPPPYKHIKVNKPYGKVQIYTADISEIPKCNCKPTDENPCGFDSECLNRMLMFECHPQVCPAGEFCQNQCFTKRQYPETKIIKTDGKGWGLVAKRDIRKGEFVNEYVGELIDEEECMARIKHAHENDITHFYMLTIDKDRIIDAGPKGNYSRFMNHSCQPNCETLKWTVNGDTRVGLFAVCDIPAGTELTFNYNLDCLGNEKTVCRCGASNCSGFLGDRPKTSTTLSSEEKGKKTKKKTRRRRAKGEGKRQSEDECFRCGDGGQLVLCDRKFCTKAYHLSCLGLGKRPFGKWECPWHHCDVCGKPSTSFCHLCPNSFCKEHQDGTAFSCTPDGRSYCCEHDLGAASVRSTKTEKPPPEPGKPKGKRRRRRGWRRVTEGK

[16] = target: T6, Nuclear receptor subfamily 0 group B member 1 (Homo sapiens, UniProt P51843); assay type: functional, cell-based;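 further: HEK293T cells transfected with SF-1 and DAX-1 plus StAR promoter luciferase reporter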
T6 sequence (P51843 whole entry): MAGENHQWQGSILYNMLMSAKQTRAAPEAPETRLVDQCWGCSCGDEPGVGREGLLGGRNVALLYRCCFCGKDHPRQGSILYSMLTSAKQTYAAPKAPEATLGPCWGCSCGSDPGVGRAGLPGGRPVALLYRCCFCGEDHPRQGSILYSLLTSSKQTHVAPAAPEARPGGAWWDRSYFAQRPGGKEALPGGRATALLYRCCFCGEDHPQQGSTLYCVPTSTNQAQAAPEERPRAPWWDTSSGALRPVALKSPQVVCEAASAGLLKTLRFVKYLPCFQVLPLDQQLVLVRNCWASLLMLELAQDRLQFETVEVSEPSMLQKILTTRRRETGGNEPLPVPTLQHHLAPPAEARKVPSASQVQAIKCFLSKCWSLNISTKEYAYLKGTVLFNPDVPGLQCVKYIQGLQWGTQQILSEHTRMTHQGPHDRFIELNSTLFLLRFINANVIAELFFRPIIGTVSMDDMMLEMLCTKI

Cytochrome P450 2C9 = Cytochrome P450 2C9 (Homo sapiens, UniProt P11712)
cells [17] = assay type: functional, cell-based; remark: listed apart in the source
Cytochrome P450 3A4 = Cytochrome P450 3A4 (Homo sapiens, UniProt P08684);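 further: CYP3A4 tested as one member of a cytochrome P450 panel screen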
Cytochrome P450 2D6 = Cytochrome P450 2D6 (Homo sapiens, UniProt P10635);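 further: CYP2D6 member of a cytochrome P450 panel assay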
Cytochrome P450 2D6, sequence (P10635 whole entry): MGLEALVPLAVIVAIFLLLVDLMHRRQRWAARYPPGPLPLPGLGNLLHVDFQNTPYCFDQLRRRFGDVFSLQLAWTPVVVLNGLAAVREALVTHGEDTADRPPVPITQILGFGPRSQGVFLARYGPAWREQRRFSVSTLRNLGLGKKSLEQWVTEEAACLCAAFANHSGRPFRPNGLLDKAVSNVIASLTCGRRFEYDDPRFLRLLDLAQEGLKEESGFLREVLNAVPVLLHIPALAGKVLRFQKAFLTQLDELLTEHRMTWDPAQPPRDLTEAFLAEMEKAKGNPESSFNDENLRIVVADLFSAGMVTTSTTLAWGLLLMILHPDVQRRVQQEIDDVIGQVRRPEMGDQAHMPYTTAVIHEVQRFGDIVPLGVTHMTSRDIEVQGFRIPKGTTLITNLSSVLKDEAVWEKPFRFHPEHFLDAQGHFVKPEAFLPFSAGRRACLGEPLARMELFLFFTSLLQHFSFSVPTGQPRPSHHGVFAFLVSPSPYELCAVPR

T3 sequence (P63165 whole entry): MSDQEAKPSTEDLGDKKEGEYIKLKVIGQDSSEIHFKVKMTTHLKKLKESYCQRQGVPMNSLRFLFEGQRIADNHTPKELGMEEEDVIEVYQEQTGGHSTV
Beta-galactosidase, sequence (Q8VNN2 whole entry): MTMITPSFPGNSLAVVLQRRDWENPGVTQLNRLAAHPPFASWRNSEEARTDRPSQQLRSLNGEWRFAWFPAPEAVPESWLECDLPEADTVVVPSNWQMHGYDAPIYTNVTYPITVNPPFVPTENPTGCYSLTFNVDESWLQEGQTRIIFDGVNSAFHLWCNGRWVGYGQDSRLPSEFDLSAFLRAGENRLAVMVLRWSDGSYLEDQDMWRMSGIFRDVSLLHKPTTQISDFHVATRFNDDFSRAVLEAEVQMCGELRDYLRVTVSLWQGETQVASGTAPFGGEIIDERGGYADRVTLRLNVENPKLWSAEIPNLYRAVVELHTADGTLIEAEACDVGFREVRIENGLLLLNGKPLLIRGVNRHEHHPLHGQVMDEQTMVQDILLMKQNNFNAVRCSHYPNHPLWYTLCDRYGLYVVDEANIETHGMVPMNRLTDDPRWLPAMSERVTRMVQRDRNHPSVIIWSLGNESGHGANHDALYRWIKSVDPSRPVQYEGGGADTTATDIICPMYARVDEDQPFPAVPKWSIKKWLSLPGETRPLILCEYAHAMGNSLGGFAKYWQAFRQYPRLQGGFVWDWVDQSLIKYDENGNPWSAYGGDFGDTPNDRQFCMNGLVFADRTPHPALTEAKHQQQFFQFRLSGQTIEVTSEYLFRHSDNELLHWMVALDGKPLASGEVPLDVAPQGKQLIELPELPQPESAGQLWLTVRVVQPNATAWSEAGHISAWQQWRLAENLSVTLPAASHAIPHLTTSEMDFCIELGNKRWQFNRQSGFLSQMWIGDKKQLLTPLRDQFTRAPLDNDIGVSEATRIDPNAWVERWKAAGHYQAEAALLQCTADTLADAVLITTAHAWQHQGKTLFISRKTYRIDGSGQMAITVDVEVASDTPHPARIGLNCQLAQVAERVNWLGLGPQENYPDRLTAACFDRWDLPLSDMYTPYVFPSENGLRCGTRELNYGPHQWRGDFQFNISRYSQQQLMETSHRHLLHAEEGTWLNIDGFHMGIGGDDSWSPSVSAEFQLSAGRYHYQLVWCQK
Cytochrome P450 3A4, sequence (P08684 whole entry): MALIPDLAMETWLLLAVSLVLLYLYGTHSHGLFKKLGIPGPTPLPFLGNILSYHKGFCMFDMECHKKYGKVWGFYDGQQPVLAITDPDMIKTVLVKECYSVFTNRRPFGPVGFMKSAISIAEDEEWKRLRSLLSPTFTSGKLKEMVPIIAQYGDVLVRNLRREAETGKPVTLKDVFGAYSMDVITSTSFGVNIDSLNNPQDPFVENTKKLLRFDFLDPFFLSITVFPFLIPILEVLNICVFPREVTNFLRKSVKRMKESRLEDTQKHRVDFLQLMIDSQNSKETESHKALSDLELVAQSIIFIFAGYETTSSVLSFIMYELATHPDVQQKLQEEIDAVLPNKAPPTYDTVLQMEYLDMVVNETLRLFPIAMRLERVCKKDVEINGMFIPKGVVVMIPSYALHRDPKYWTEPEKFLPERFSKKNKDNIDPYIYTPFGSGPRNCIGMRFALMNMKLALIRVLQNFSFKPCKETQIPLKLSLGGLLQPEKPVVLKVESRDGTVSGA
Tyrosyl-DNA phosphodiesterase 2, sequence (O95551 whole entry): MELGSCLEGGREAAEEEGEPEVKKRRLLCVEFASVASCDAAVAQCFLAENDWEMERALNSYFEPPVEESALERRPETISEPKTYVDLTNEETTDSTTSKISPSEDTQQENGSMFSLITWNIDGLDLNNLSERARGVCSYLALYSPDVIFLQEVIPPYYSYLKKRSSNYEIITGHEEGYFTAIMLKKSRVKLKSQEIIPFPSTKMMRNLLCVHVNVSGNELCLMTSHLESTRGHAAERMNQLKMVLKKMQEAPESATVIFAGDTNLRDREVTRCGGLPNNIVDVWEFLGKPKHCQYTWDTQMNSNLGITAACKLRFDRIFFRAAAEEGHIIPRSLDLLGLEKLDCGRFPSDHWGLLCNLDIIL
Paired box protein Pax-8, sequence (Q06710 whole entry): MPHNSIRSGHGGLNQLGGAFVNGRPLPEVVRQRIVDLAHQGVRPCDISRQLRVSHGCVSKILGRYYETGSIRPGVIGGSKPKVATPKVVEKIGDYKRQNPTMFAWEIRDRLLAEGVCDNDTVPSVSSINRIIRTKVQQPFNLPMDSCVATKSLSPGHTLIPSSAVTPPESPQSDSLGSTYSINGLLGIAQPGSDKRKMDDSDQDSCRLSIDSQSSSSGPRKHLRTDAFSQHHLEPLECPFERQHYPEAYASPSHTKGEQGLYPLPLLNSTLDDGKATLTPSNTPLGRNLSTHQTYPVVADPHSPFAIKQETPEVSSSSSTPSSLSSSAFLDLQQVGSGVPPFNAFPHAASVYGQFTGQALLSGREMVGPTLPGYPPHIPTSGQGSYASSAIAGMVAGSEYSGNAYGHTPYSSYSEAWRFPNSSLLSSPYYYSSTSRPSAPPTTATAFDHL
Large T antigen, sequence (P03070 whole entry): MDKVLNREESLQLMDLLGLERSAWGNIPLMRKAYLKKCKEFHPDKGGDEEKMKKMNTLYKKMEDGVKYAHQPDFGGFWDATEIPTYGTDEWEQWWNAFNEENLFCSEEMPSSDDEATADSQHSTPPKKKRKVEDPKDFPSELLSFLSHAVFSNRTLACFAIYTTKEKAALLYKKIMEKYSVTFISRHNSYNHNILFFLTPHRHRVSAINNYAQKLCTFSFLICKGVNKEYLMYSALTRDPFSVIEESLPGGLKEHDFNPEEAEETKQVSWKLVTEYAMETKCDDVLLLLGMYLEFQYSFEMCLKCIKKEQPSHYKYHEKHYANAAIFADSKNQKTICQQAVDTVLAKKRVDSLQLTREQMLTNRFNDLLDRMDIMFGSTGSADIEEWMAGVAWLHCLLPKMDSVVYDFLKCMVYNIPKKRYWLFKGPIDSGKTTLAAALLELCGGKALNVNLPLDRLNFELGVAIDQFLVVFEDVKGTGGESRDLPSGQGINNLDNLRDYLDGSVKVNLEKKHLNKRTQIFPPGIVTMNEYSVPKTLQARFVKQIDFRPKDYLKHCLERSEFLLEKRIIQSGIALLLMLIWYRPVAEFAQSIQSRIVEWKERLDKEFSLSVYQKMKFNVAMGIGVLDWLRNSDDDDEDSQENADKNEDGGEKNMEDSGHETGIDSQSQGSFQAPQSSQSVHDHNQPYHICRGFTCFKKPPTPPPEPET
Cytochrome P450 2C9, sequence (P11712 whole entry): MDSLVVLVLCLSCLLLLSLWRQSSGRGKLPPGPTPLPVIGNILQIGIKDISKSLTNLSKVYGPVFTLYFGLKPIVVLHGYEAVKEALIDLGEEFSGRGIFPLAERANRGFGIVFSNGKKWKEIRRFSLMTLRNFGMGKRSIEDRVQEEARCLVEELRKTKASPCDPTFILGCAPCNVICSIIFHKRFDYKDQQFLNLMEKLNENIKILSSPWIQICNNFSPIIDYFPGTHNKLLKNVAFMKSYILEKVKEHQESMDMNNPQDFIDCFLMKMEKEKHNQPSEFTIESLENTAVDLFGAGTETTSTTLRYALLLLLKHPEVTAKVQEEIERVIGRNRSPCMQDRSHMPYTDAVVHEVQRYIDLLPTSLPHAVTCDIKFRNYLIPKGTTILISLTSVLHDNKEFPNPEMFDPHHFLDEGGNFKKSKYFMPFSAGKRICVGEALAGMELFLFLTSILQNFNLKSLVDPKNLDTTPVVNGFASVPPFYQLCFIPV

CCOC(=O)N1CCN(C(=O)c2cc3cc(Cl)ccc3[nH]2)CC1
IC50 (Beta-galactosidase): > 80 µM (inactive)

COc1ccc(OCC(=O)N2CCc3ccccc3C2)cc1
EC50 (cells [1]): > 29.9 µM (inactive) | IC50 (cells [2]): > 29.9 µM (inactive)

CCN1CCN(C(=O)/C=C/c2ccc(OC)cc2)CC1
IC50 (Beta-galactosidase): > 80 µM (inactive)

COc1cc(/C=C2\SC(Nc3ccccc3OC)=NC2=O)ccc1O
IC50 [3]: 22.2 µM (active) | CC50 [4]: 100 µM (active)

CCOC(=O)c1cc(S(=O)(=O)N2CCc3ccccc32)cn1C
EC50 [5]: > 195 µM (not active) | AC50 (Vero): 17.9 µM (active)

COc1ccc(C(=O)NCCNc2nc3c(C)cccc3cc2C#N)cc1OC
AC50 (Vero): 25.7 µM (active)

CCC(CO)Oc1cc(NC(=O)c2cccc(OC)c2)c2ncn(C(C)C)c2c1 (configuration not stated)
IC50 [6]: 12.7 µM (active) | IC50 [7]: 36.6 µM (inactive) | IC50 [8]: > 66.6 µM (inactive)

CNc1nc(NCCOc2ccccc2)c2sccc2n1
AC50 [9]: 4.2 µM (active) | AC50 [10]: 38.3 µM (active)

CC1NC(C)c2c(ccc3ccccc23)O1 (configuration not stated)
EC50 (cells [1]): > 29.9 µM (inactive) | IC50 [3]: 114 µM (active) | IC50 (cells [2]): > 29.9 µM (inactive)

CCNC(=O)C[C@@H]1CC[C@@H]2[C@H](COc3ccc(NC(=O)Nc4cccc(Cl)c4)cc3C(=O)N2C)O1
AC50 [9]: < 0.195 µM (active) | AC50 [10]: 4.02 µM (active)

COC(=O)C1=C(C)N(Cc2ccc(C(F)(F)F)cc2)C(NCc2ccccc2)=NC1c1cccc(F)c1 (configuration not stated)
AC50 (Paired box protein Pax-8): 26.8 µM (active) | AC50 [11]: 23.4 µM (active)

C=CCNC1=C(N2CCSCC2)C(=O)c2ccccc2C1=O
AC50 [12]: 24.3 µM (active) | AC50 [13]: 8.56 µM (active)

Oc1ccc(/C=N/Nc2cc(N3CCOCC3)nc(N3CCOCC3)n2)cc1O
IC50 [14]: 28.9 µM (active) | IC50 (Large T antigen): 23.1 µM (active) | IC50 [3]: 52.1 µM (active) | AC50 [15]: 7.86 µM (active) | CC50 [4]: 100 µM (active)

CC(=O)NC1=C(c2ccc(Cl)cc2)C(=O)c2ccccc2C1=O
AC50 [12]: 12.4 µM (active) | AC50 [13]: 9.22 µM (active)

O=c1cc(-c2ccccc2)oc2cc(O)cc(O)c12 [CHRYSIN]
IC50 [16]: > 67.6 µM (inactive) | AC50 (Cytochrome P450 2C9): 5.01 µM (inconclusive) | IC50 (cells [17]): > 67.6 µM (inactive) | AC50 (Cytochrome P450 3A4): 3.16 µM (inconclusive) | AC50 (Cytochrome P450 2D6): 12.6 µM (inconclusive)

O=C1Cc2c([nH]c3ccc(Br)cc23)-c2ccccc2N1 [KENPAULLONE]
IC50 [16]: > 0.834 µM (active) | IC50 (cells [17]): > 67.5 µM (inactive)
